Experiment: xn = mol fraction of the nth substance listed
Details: 101 kPa, Liquid; for viscosity: Oscillating disk viscometry; for mass density: Vibrating tube method

CCN(CC)CCO [(diethylamino)ethanol] + O
Details | mass density, 298.15 K [kg/m3] | mass density, 313.15 K [kg/m3] | mass density, 333.15 K [kg/m3] | viscosity, 298.15 K [mPa·s] | viscosity, 303.15 K [mPa·s] | viscosity, 313.15 K [mPa·s] | viscosity, 323.15 K [mPa·s] | viscosity, 333.15 K [mPa·s]
x1 = 0.02012 | 993.744 | 987.552 | 976.86 | 2.16 | 1.4 | 1.12 | 0.94 | 0.75
x1 = 0.04547 | 990.151 | 981.577 | 968.366 | 3.62 | 2.34 | 1.66 | 1.32 | 1.03
x1 = 0.07875 | 983.322 | 972.648 | 957.191 | – | 3.61 | 2.42 | 1.72 | 1.24
x1 = 0.1252 | 971.858 | 959.656 | 942.334 | 8 | 5.75 | 3.76 | 2.6 | 1.87
x1 = 0.1933 | 961.569 | 948.632 | 930.379 | 11.61 | 8.05 | 5.27 | 3.69 | 2.53

O [water] + CCN(CC)CCO
x2 = 0
Details | mass density [kg/m3] | viscosity [mPa·s]
298.15 K | – | 0.89
303.15 K | – | 0.8
313.15 K | – | 0.65
323.15 K | – | 0.55
333.15 K | 983.2 | 0.48

O [water] + NCCCCN
x2 = 0
Details | mass density [kg/m3] | viscosity [mPa·s]
298.15 K | – | 0.89
303.15 K | – | 0.8
313.15 K | – | 0.65
323.15 K | – | 0.55
333.15 K | 983.2 | 0.48

NCCCCN [1,4-butanediamine] + O
Details | mass density, 298.15 K [kg/m3] | mass density, 313.15 K [kg/m3] | mass density, 333.15 K [kg/m3] | viscosity, 303.15 K [mPa·s] | viscosity, 313.15 K [mPa·s] | viscosity, 323.15 K [mPa·s] | viscosity, 333.15 K [mPa·s]
x1 = 0.01952 | 992.346 | 986.497 | 976.433 | 1.23 | 0.98 | 0.8 | 0.63
x1 = 0.04244 | 988.532 | 981.237 | 969.713 | 1.83 | 1.39 | 1.1 | 0.9
x1 = 0.06965 | 985.772 | 976.817 | 963.518 | 2.51 | 1.85 | 1.4 | 1.06
x1 = 0.1025 | 982.813 | 972.197 | 957.323 | 3.65 | 2.57 | 1.86 | 1.37
x1 = 0.1434 | 978.544 | 966.791 | 950.667 | 4.87 | 3.29 | 2.29 | 1.62

— the NIST ThermoML archive (doi:10.1021/je301371p)
